The structures appear in SMILES notation.

The source of these data is patent US20100227853A1, “INHIBITORS OF CYCLIC AMP PHOSPHODIESTERASES” (Trustees of Boston College, priority 2008, published 2010).

For experiment [1], the target named is T1, PDE2A (Mus musculus, UniProt Q922S4).
T1 construct: targets used in the assays are full-length proteins (as opposed to simply the catalytic domain); expressed in transfected cells; host or cells: Schizosaccharomyces pombe, PDE gene integrated in place of cgs2 (strains LWP371, LWP364)
T1 sequence (Q922S4 1-939): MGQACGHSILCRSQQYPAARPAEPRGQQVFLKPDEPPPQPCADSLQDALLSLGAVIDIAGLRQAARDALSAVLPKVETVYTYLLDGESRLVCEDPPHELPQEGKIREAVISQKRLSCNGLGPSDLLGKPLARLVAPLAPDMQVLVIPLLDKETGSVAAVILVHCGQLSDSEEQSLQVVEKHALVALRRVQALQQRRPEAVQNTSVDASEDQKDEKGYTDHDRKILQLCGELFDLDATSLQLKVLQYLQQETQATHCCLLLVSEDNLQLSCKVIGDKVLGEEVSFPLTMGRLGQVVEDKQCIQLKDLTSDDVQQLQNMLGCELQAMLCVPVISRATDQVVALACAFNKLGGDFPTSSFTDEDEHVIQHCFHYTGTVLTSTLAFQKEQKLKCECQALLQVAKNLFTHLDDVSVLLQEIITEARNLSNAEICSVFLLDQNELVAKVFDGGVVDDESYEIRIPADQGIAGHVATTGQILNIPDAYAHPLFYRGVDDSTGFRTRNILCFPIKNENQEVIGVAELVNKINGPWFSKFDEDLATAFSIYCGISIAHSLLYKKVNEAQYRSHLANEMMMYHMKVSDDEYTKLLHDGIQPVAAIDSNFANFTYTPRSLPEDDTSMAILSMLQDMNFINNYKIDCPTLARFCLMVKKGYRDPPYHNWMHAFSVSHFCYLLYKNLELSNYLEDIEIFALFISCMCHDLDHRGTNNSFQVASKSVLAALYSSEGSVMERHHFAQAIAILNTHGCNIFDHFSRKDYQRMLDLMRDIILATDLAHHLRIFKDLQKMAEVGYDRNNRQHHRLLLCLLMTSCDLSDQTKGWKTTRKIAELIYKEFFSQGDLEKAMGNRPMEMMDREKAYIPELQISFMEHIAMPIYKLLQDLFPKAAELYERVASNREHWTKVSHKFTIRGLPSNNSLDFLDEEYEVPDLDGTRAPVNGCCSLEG
Nature of the experiment: cAMP levels in yeast strain expressing PDE2A. The format is cell-based, murine. As to conditions: 20 μM EHNA as compared to 200 μM. The protocol: (§1) Values represent the average and SD of two or three independent experiments. […] The strains used are as in FIG. 5A, together with strain CHP1141 (PDE8A). Values represent the average and SD of two or three independent experiments.
(§2) β-galactosidase assays and characterization of 5FOA-sensitivity were carried out as previously described^10. cAMP assays were performed on exponential phase cells grown in EMM complete medium (3% glucose), using the Assay Designs cAMP EIA kit, according to manufacturer's instructions (Assay Designs, Ann arbor, Mich.).
(§3) Thus, PDE inhibition can be indirectly quantitated by measuring the effect of a compound on cAMP levels in target yeast strains.
A general note: cAMP levels reflect the balance of adenylyl cyclase and phosphodiesterase activity.

Experiment [2] deals with T1, PDE2A. Nature of the experiment: fbp1-lacZ β-galactosidase reporter assay, PDE2A strain. The format is cell-based, murine. The settings on record: strain LWP367 (PDE2A). The protocol:
as §2
(§4) The effect of known PDE inhibitors on the expression of the fbp1-lacZ fusion in murine PDE-expressing strains was tested. […] For Table 4 β-galactosidase activity was determined from 3 to 4 independent exponential phase cultures. The average±SD represents specific activity per milligram of soluble protein.
(In general: Reporter assays use an easily measured gene product as a stand-in for the process of interest.)

Experiment [3] has as its target T2, PDE8A (Mus musculus, UniProt O88502).
T2 construct: targets used in the assays are full-length proteins (as opposed to simply the catalytic domain); expressed in transfected cells; host or cells: Schizosaccharomyces pombe, PDE gene integrated in place of cgs2 (strains CHP1141, DDP13)
T2 sequence (O88502 1-823): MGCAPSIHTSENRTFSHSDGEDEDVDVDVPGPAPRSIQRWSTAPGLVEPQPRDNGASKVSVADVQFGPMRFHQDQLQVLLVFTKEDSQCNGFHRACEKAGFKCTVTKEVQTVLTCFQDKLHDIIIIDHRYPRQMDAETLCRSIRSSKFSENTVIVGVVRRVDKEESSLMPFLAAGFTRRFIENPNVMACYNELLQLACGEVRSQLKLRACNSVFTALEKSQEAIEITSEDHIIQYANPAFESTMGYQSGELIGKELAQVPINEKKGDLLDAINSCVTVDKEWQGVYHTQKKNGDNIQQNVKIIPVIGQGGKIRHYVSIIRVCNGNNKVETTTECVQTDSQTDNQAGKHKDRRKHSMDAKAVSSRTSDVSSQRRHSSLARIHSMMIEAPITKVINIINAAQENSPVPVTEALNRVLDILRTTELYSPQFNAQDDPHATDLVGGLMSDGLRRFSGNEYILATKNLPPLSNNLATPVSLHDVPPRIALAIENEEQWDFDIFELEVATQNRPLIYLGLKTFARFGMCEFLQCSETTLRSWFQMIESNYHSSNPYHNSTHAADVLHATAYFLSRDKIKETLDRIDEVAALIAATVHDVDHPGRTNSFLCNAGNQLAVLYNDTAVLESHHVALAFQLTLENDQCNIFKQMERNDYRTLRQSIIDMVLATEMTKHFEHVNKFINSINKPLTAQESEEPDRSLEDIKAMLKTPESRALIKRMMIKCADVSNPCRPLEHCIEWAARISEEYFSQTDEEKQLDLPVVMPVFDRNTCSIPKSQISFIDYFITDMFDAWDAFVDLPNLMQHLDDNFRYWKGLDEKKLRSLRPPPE
Nature of the experiment: fbp1-lacZ β-galactosidase reporter assay, PDE8A strain. The format is cell-based, murine. As to conditions: strain DDP13 (PDE8A). As for the experimental part:
as §2, §4

The test system of another experiment is U937 cells. Nature of the experiment: TNF alpha release by LPS-treated U937 cells. The format is cell-based.
In another experiment the test system is Cgs2-2. Nature of the experiment: fbp1-lacZ β-galactosidase reporter assay, Cgs2-2 strain. The format is cell-based, S. pombe. As to conditions: strain LWP98 (Cgs2-2). As for the experimental part:
as §2, §4

The target of experiment [4] is T3, PDE7B (Homo sapiens, UniProt Q9NP56). Nature of the experiment: in vitro enzyme assay, PDE7B catalytic domain from E. coli, hydrolysis of cAMP to AMP. The format is biochemical. Also on record: The PDE7B catalytic domain was expressed in and purified from E. coli; made in house; host or cells: E. coli. The settings on record: AC200 = [Compound] that doubles PDE activity; read-out: IC50 (or AC200), PDE7B. The protocol: The PDE7B catalytic domain was expressed in and purified from E. coli and tested for activity in an in vitro enzyme assay, measuring the hydrolysis of cAMP to AMP. Four dilutions of the enzyme preparation were tested at various compound concentrations (X axis). The percent of cAMP hydrolyzed is plotted on the Y axis.
Target sequence in this assay (Q9NP56 97-420 limits assumed, species assumed): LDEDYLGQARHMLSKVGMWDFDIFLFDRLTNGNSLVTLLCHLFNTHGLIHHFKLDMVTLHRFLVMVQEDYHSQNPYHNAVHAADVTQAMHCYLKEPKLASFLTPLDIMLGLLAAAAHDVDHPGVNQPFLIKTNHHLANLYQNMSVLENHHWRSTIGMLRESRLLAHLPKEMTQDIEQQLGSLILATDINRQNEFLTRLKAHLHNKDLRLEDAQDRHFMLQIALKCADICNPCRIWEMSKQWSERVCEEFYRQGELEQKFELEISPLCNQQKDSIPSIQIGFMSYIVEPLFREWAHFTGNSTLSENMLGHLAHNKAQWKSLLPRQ

Experiment [5] has as its system PDE2A, PDE4A, PDE4B, Cgs2. Nature of the experiment: Parallel high throughput 5FOA growth screens of bioactive libraries. The format is cell-based, murine PDEs; yeast Cgs2. As to conditions: 3,120 bioactive compounds, average 20 μM. The protocol: High throughput drug screens were carried out at the Broad Institute's Chemical Biology Program screening facility (Broad Institute, Cambridge, Mass.). Depending upon the strain, cultures were pregrown to exponential phase in EMM complete medium containing from 0.5 to 2.5 mM cAMP to repress fbp1-ura4 transcription. […] Starting cell concentrations ranged from 0.5×10^5 to 4×10^5 cells/ml depending on the screening strain. […] Other positive control dishes contained 5 mM cAMP in the 5FOA medium. Cultures were grown for 48 hours at 30° C., sealed in an airtight container with moist paper towels to prevent evaporation. Optical densities (OD600) of cultures were measured using a microplate reader. Bioinformatic analysis of the results to determine composite Z scores was performed as previously described^30, 31.

Another experiment has as its target T4, Cgs2 (Schizosaccharomyces pombe, UniProt P36599).
T4 construct: expressing either the wild-type S. pombe Cgs2^+ PDE; endogenous in cells; host or cells: Schizosaccharomyces pombe strain CHP861
Put plainly: fbp1-lacZ β-galactosidase reporter assay, Cgs2 strain. The experiment is classed as cell-based, S. pombe. As to conditions: strain CHP861 (Cgs2). The protocol:
as §2, §4

The target of the next experiment is PDE7A (Homo sapiens, UniProt Q13946). Put plainly: 5FOA growth assay in fission yeast strain expressing PDE7A. The experiment is classed as cell-based. Also on record: targets used in the assays are full-length proteins (as opposed to simply the catalytic domain); expressed in transfected cells; host or cells: Schizosaccharomyces pombe, PDE gene integrated in place of cgs2. As to conditions: OD600 0.6; read-out: ED50 for 5FOA growth assays, PDE7A. An outline of the steps: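 Fission yeast carrying an fbp1-ura4 reporter were pregrown to exponential phase at 30 °C in EMM with 0–2.5 mM cAMP (or 0.5/1.0 mM cGMP), then moved into 5FOA medium with 100 nl pinned compound (10 mM stocks). Growth was read as OD600 after 48 h at 30 °C and scored as composite Z scores.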

Experiment [6] deals with T2, PDE8A. Nature of the experiment: cAMP levels in yeast strain expressing PDE8A. The format is cell-based, murine. The settings on record: rolipram treatment. The protocol:
as §1, §2, §3

Experiment [7] concerns the target T3, PDE7B. Nature of the experiment: 5FOA growth assay in fission yeast strain expressing PDE7B. The experiment is classed as cell-based. As to conditions: OD600 0.6; read-out: ED50 for 5FOA growth assays, PDE7B. Also on record: targets used in the assays are full-length proteins (as opposed to simply the catalytic domain); expressed in transfected cells; host or cells: Schizosaccharomyces pombe. The protocol: PDE inhibition allows growth in 5FOA medium as measured by optical density after 48 hours incubation at 30° C. Compound BC12 and six structural analogs were tested for growth stimulation.
Cells were pregrown in EMM medium [MP Biomedicals (Solon, Ohio), 3% glucose, filter-sterilized to avoid carmelization, which would introduce variability into the optical density of the medium] containing from 0 mM to 2.5 mM cAMP (or either 0.5 mM or 1.0 mM cGMP). This was to repress expression of the fbp1-ura4 reporter prior to exposure of cells to 5FOA medium. Cells were grown at 30° C. to exponential phase (approximately 10^7 cells/ml). Cells were collected by centrifugation and resuspended in 5FOA medium, and 25 μl were transferred to 384-well microtiter dishes (untreated, with flat clear bottoms) that had been pre-filled with 25 μl 5FOA medium and pre-pinned with 100 nl of compounds (stock solutions were generally 10 mM). Starting cell concentrations ranged from 0.5×10^5 to 4×10^5 cells/ml depending on the screening strain. […] Other positive control dishes contained 5 mM cAMP in the 5FOA medium for PDEs that lack appropriate control compounds. Cultures were grown for 48 hours at 30° C., sealed in an airtight container with moist paper towels to prevent evaporation. Optical densities (OD600) of cultures were measured using a microplate reader. Bioinformatic analysis of the results to determine composite Z scores was performed as previously described (1, 3).
Target sequence in this assay (Q9NP56 whole entry, species assumed, the tested form may be a part): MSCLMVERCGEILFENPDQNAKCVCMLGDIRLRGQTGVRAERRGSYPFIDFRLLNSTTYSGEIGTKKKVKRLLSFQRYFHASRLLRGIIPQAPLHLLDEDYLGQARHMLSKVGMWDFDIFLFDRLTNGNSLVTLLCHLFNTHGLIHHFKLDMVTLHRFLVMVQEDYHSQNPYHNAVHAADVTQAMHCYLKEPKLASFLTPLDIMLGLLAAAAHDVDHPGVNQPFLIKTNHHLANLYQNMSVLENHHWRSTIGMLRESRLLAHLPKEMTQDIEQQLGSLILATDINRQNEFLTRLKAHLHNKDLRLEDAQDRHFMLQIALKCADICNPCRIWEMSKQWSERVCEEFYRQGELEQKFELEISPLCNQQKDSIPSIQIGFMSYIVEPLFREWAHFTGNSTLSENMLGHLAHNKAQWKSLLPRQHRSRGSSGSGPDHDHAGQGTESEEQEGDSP

T4 sequence (P36599 whole entry): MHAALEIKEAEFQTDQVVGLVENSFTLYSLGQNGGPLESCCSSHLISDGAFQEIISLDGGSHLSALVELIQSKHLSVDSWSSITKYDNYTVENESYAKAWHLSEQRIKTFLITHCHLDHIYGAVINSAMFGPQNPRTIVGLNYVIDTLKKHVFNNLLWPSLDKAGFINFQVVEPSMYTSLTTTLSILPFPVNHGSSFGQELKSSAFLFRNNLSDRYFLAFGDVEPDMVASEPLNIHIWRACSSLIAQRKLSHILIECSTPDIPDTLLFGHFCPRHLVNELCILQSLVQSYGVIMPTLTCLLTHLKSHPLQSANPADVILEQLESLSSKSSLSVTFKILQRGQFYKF
PDE7A, sequence (Q13946 whole entry, the tested form may be a part): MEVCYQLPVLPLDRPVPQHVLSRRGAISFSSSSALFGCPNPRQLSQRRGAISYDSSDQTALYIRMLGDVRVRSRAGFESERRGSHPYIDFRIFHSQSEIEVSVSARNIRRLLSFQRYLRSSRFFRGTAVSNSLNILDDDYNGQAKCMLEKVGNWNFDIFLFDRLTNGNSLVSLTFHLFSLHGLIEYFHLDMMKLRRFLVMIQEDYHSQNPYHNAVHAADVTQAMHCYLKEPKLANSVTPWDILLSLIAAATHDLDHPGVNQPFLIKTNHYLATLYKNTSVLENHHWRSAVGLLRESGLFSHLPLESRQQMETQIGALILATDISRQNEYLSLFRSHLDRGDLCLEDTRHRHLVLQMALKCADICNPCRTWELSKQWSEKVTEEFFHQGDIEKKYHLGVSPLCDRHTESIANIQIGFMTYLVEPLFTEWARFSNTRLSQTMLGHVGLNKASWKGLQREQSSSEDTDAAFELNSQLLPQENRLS

Take `CCCCCC[C@@H]([C@@H](C)O)n1cnc2c(N)ncnc21` (racemic) [EHNA]: at PDE2A [1], the “inhibition of PDE2A judged by cAMP levels” value is “partial inhibition”. The β-galactosidase activity on PDE2A [2] (5 μM EHNA) is 473 ± 19; at PDE2A [2] (20 μM EHNA), 197 ± 51; at PDE2A [2] (200 μM EHNA), 45 ± 3.
One may read the IC50 as the midpoint of a concentration-inhibition curve. With `COc1ccc(C2CNC(=O)C2)cc1OC1CCCC1` (stereo not drawn) [Rolipram, reference compound], the β-galactosidase activity on PDE8A [3] (50 μM Rolipram) turned out to be 253 ± 46; at PDE8A [3] (100 μM Rolipram), 237 ± 67; in the experiment with Cgs2-2 (50 μM Rolipram), 19 ± 9; with Cgs2-2 (100 μM Rolipram) it was 20 ± 11; at Cgs2 (50 μM Rolipram, specific activity per milligram of soluble protein, average ± SD), 1807 ± 446; on Cgs2 (100 μM Rolipram), 1784 ± 429. Also, the TNF in the experiment on U937 cells (3 HOURS) stood at 3497 pg/mL; with U937 cells (20 HOURS), 9362 pg/mL. Besides, the entries for the “TNF alpha (EtoH = 100.0)” value with U937 cells (3 HOURS) and in the experiment on U937 cells (20 HOURS) were 86.2 and 86.3, respectively. In addition, the “TNF, % EtOH cntrl” value with U937 cells (3 HOURS) is given as 72.4%; with U937 cells (20 HOURS) it was 68.4%. Also, the IC50 on PDE7B [4] is above 2 µM. Moreover, the “hit in high throughput screens (promotes 5FOA^R growth), in words” value in experiment [5] was “only affected the PDE4A- and PDE4B-expressing strains”. The EC50 at PDE7A and on PDE7B [7] was above 200 µM throughout. Besides, at PDE8A [6], the “cAMP levels in PDE8A strain” value is “completely insensitive”.
